Reference: ChEMBL document CHEMBL1136279, “Synthesis and insulin-sensitizing activity of a novel kind of benzopyran derivative” (2003)

Tests used:
3T3-L1 [1] = assay: Percentage of rosiglitazone response for insulin-sensitizing activity at 1 uM concentration in 3T3-L1 cells; type: functional, Mus musculus
3T3-L1 [2] = assay: Effective concentration for enhancement of insulin-induced triglyceride accumulation in 3T3-L1 cells; type: functional; conditions: Mus musculus

Compound | Insulin-sensitizing activity (3T3-L1 [1]) | EC30 (3T3-L1 [2])
COC(=O)c1cc2ccc(OCCN(C)C(=O)OC(C)(C)C)cc2oc1=O | 115% | 
Cc1oc(-c2ccccc2)nc1CCOc1ccc2cc(C(=O)OC(C)(C)C)c(=O)oc2c1 | 89% | 0.382 µM
COC(=O)C1Cc2cc(OCCc3nc(-c4ccccc4)oc3C)ccc2OC1=O (stereo not drawn) | 28% | 
COC(=O)c1cc2ccc(OCCn3ccc4ccccc43)cc2oc1=O | 108% | 0.344 µM
Cc1oc(-c2ccccc2)nc1CCOc1ccc2c(c1)OC(=O)C(C(=O)O)C2 (stereo not drawn) | 98% | 0.11 µM
COC(=O)c1cc2ccc(OCCc3nc(-c4ccccc4)oc3C)cc2oc1=O | 129% | 0.008 µM
COC(=O)c1cc2cc(OCCc3nc(-c4ccccc4)oc3C)ccc2oc1=O | 33% | 
COC(=O)C1Cc2ccc(OCCN(C)c3nc4ccccc4o3)cc2OC1=O (stereo not drawn) | 108% | 0.219 µM
Cc1oc(-c2ccccc2)nc1CCOc1ccc2cc(C(=O)O)c(=O)oc2c1 | 103% | 0.3 µM
COC(=O)C1Cc2ccc(OCCc3nc(-c4ccccc4)oc3C)cc2OC1=O (stereo not drawn) | 132% | 0.0156 µM
CN(CCOc1ccc(CC2SC(=O)NC2=O)cc1)c1ccccn1 (stereo not drawn) [ROSIGLITAZONE] | 100% | 0.0203 µM
CCc1ccc(CCOc2ccc3cc(C(=O)OC)c(=O)oc3c2)nc1 | 46% | 
O=C(O)c1cc2ccc(OCCn3ccc4ccccc43)cc2oc1=O | 25% | 
CCc1ccc(CCOc2ccc3cc(C(=O)O)c(=O)oc3c2)nc1 | 15% | 
CCc1ccc(CCOc2ccc3c(c2)OC(=O)C(C(=O)OC)C3)nc1 (stereo not drawn) | 27% | 
